The record followed here is ChEMBL document CHEMBL1697781, “Assessment of the health effects of chemicals in humans: II. Construction of an adverse effects database for QSAR modeling” (Curr Drug Discov Technol, 2004).

Common to all, as to conditions: human
Series [1] has as its system Hepatotoxicity. The experiment in a line: FDA HLAED, liver enzyme composite activity.
In series [2] the test system is Hepatotoxicity. In words: FDA HLAED, alkaline phosphatase increase.
Series [3] deals with Hepatotoxicity. In words: FDA HLAED, serum glutamic oxaloacetic transaminase (SGOT) increase.
In series [4] the test system is Hepatotoxicity. The experiment in a line: FDA HLAED, serum glutamic pyruvic transaminase (SGPT) increase.
Series [5] has as its system Hepatotoxicity. The experiment in a line: FDA HLAED, lactate dehydrogenase (LDH) increase.
Series [6] relates to Hepatotoxicity. In words: FDA HLAED, gamma-glutamyl transferase (GGT) increase.
Wherever GGT Increase - Index Value is given: reference of the scale not given here.
Wherever LDH Increase - Index Value is given: reference of the scale not given here.

Turning to `CO/N=C(\C(=O)N[C@@H]1C(=O)N2C(C(=O)[O-])=C(C[N+]3(C)CCCC3)CS[C@H]12)c1csc(N)n1`, in the series with Hepatotoxicity [1], the “Composite Activity - Active” value amounted to 1, the “Composite Activity - Marginal” value turned out to be 0 and the “Composite Activity - Score” value was “Inactive”. In the series with Hepatotoxicity [2], the “Alkaline Phosphatase Increase - Activity Score” value is “Inactive”, the “Alkaline Phosphatase Increase - Index Value” worked out at 1 and the “Alkaline Phosphatase Increase - Number of Reports” value was less than 4. Besides, in the series on Hepatotoxicity [3], the “SGOT Increase - Activity Score” value was “Inactive”, the “SGOT Increase - Index Value” amounted to 13.7 and the “SGOT Increase - Number of Reports” value is listed as less than 4. Moreover, in the series with Hepatotoxicity [4], the “SGPT Increase - Activity Score” value is “Active”, the “SGPT Increase - Index Value” is 68.4 and the “SGPT Increase - Number of Reports” value is listed as “>= 4”. In addition, in the series on Hepatotoxicity [5], the “LDH Increase - Activity Score” value is listed as “Inactive”, the “LDH Increase - Index Value” came to 27.4 and the “LDH Increase - Number of Reports” value is given as less than 4. In the series on Hepatotoxicity [6], the “GGT Increase - Activity Score” value is “Inactive”, the “GGT Increase - Index Value” is on record as 27.4 and the “GGT Increase - Number of Reports” value is given as less than 4.
For the compound `CNCCCC12CCC(c3ccccc31)c1ccccc12` [MAPROTILINE], in the series on Hepatotoxicity [1] (Liver), the “Composite Activity - Active” value was determined as 0, the “Composite Activity - Marginal” value amounted to 0 and the “Composite Activity - Score” value is listed as “Inactive”. Besides, in the series on Hepatotoxicity [2], the “Alkaline Phosphatase Increase - Activity Score” value is “Inactive”, the “Alkaline Phosphatase Increase - Index Value” amounted to 0.5 and the “Alkaline Phosphatase Increase - Number of Reports” value was less than 4. Besides, in the series with Hepatotoxicity [3], the “SGOT Increase - Activity Score” value is on record as “Inactive”, the “SGOT Increase - Index Value” was 0.3 and the “SGOT Increase - Number of Reports” value is given as less than 4. In the series on Hepatotoxicity [4], the “SGPT Increase - Activity Score” value is recorded as “Inactive”, the “SGPT Increase - Index Value” came to 0.3 and the “SGPT Increase - Number of Reports” value is less than 4. In the series on Hepatotoxicity [5], the “LDH Increase - Activity Score” value is reported as “Inactive”, the “LDH Increase - Index Value” was 0 and the “LDH Increase - Number of Reports” value is less than 4. Further, in the series on Hepatotoxicity [6], the “GGT Increase - Activity Score” value is “Inactive”, the “GGT Increase - Index Value” amounted to 0 and the “GGT Increase - Number of Reports” value is recorded as less than 4.
With `c1ccc([C@H]2CN3CCSC3=N2)cc1` [LEVAMISOLE], in the series on Hepatotoxicity [1] (Liver), the “Composite Activity - Active” value was 3, the “Composite Activity - Marginal” value is 0 and the “Composite Activity - Score” value is recorded as “Active”. Also, in the series on Hepatotoxicity [2], the “Alkaline Phosphatase Increase - Activity Score” value is “Active”, the “Alkaline Phosphatase Increase - Index Value” is given as 38.3 and the “Alkaline Phosphatase Increase - Number of Reports” value is “>= 4”. Besides, in the series with Hepatotoxicity [3], the “SGOT Increase - Activity Score” value is recorded as “Active”, the “SGOT Increase - Index Value” is 26.5 and the “SGOT Increase - Number of Reports” value is “>= 4”. In the series on Hepatotoxicity [4], the “SGPT Increase - Activity Score” value is reported as “Inactive”, the “SGPT Increase - Index Value” was found to be 8.8 and the “SGPT Increase - Number of Reports” value is less than 4. Also, in the series on Hepatotoxicity [5], the “LDH Increase - Activity Score” value is “Active”, the “LDH Increase - Index Value” is recorded as 29.4 and the “LDH Increase - Number of Reports” value is recorded as “>= 4”. For the same compound, in the series with Hepatotoxicity [6], the “GGT Increase - Activity Score” value is recorded as “Inactive”, the “GGT Increase - Index Value” is given as 5.9 and the “GGT Increase - Number of Reports” value is listed as less than 4.
For the compound `CCC1(c2ccc(N)cc2)CCC(=O)NC1=O` (configuration not stated) [AMINOGLUTETHIMIDE], in the series with Hepatotoxicity [1], the “Composite Activity - Active” value is given as 0, the “Composite Activity - Marginal” value is recorded as 0 and the “Composite Activity - Score” value is “Inactive”. Besides, in the series on Hepatotoxicity [2], the “Alkaline Phosphatase Increase - Activity Score” value was “Inactive”, the “Alkaline Phosphatase Increase - Index Value” is recorded as 0 and the “Alkaline Phosphatase Increase - Number of Reports” value is listed as less than 4. Further, in the series with Hepatotoxicity [3], the “SGOT Increase - Activity Score” value was “Inactive”, the “SGOT Increase - Index Value” came out at 0 and the “SGOT Increase - Number of Reports” value is less than 4. In the series with Hepatotoxicity [4], the “SGPT Increase - Activity Score” value is given as “Inactive”, the “SGPT Increase - Index Value” came to 0 and the “SGPT Increase - Number of Reports” value is less than 4. Moreover, in the series with Hepatotoxicity [5], the “LDH Increase - Activity Score” value is listed as “Inactive”, the “LDH Increase - Index Value” was 0 and the “LDH Increase - Number of Reports” value is on record as less than 4. In the series on Hepatotoxicity [6], the “GGT Increase - Activity Score” value is reported as “Inactive”, the “GGT Increase - Index Value” is reported as 0 and the “GGT Increase - Number of Reports” value is less than 4.
As for `COC(=O)CCc1ccc(OCC(O)CNC(C)C)cc1` (configuration not stated) [ESMOLOL], in the series with Hepatotoxicity [1], the “Composite Activity - Active” value is given as 0, the “Composite Activity - Marginal” value was found to be 0 and the “Composite Activity - Score” value was “Inactive”. For the same compound, in the series on Hepatotoxicity [2], the “Alkaline Phosphatase Increase - Activity Score” value is “Inactive”, the “Alkaline Phosphatase Increase - Index Value” came out at 0 and the “Alkaline Phosphatase Increase - Number of Reports” value is less than 4. In addition, in the series on Hepatotoxicity [3], the “SGOT Increase - Activity Score” value was “Inactive”, the “SGOT Increase - Index Value” came to 4.6 and the “SGOT Increase - Number of Reports” value is less than 4. Also, in the series with Hepatotoxicity [4], the “SGPT Increase - Activity Score” value is on record as “Inactive”, the “SGPT Increase - Index Value” is reported as 0 and the “SGPT Increase - Number of Reports” value was less than 4. In the series with Hepatotoxicity [5], the “LDH Increase - Activity Score” value is “Inactive”, the “LDH Increase - Index Value” is reported as 4.6 and the “LDH Increase - Number of Reports” value was less than 4. For the same compound, in the series on Hepatotoxicity [6], the “GGT Increase - Activity Score” value is “Inactive”, the “GGT Increase - Index Value” is reported as 0 and the “GGT Increase - Number of Reports” value is listed as less than 4.
As for NYSTATIN, in the series on Hepatotoxicity [1], the “Composite Activity - Active” value came out at 0, the “Composite Activity - Marginal” value stood at 0 and the “Composite Activity - Score” value is reported as “Inactive”. Further, in the series on Hepatotoxicity [2], the “Alkaline Phosphatase Increase - Activity Score” value was “Inactive”, the “Alkaline Phosphatase Increase - Index Value” was 0.3 and the “Alkaline Phosphatase Increase - Number of Reports” value is less than 4. In the series with Hepatotoxicity [3], the “SGOT Increase - Activity Score” value is recorded as “Inactive”, the “SGOT Increase - Index Value” was determined as 0 and the “SGOT Increase - Number of Reports” value is on record as less than 4. In the series with Hepatotoxicity [4], the “SGPT Increase - Activity Score” value is reported as “Inactive”, the “SGPT Increase - Index Value” was 0 and the “SGPT Increase - Number of Reports” value is less than 4. In the series with Hepatotoxicity [5], the “LDH Increase - Activity Score” value is given as “Inactive”, the “LDH Increase - Index Value” is recorded as 0 and the “LDH Increase - Number of Reports” value is less than 4. In addition, in the series with Hepatotoxicity [6], the “GGT Increase - Activity Score” value is listed as “Inactive”, the “GGT Increase - Index Value” came out at 0 and the “GGT Increase - Number of Reports” value is given as less than 4.
On to `CNCC(O)c1ccc(OC(=O)C(C)(C)C)c(OC(=O)C(C)(C)C)c1` (configuration not stated) [DIPIVEFRIN], for which, in the series on Hepatotoxicity [1], the “Composite Activity - Active” value worked out at 0, the “Composite Activity - Marginal” value is 0 and the “Composite Activity - Score” value is recorded as “Inactive”. Also, in the series on Hepatotoxicity [2], the “Alkaline Phosphatase Increase - Activity Score” value was “Inactive”, the “Alkaline Phosphatase Increase - Index Value” is listed as 0 and the “Alkaline Phosphatase Increase - Number of Reports” value was less than 4. Also, in the series with Hepatotoxicity [3], the “SGOT Increase - Activity Score” value is given as “Inactive”, the “SGOT Increase - Index Value” was 0 and the “SGOT Increase - Number of Reports” value is listed as less than 4. Moreover, in the series with Hepatotoxicity [4], the “SGPT Increase - Activity Score” value is on record as “Inactive”, the “SGPT Increase - Index Value” came to 0 and the “SGPT Increase - Number of Reports” value is on record as less than 4. In the series on Hepatotoxicity [5], the “LDH Increase - Activity Score” value is recorded as “Inactive”, the “LDH Increase - Index Value” came out at 0 and the “LDH Increase - Number of Reports” value is less than 4. Also, in the series with Hepatotoxicity [6], the “GGT Increase - Activity Score” value is given as “Inactive”, the “GGT Increase - Index Value” stood at 0 and the “GGT Increase - Number of Reports” value is on record as less than 4.
In the case of `Clc1ccc(COC(Cn2ccnc2)c2ccc(Cl)cc2Cl)cc1` (configuration not stated) [ECONAZOLE], in the series on Hepatotoxicity [1], the “Composite Activity - Active” value worked out at 0, the “Composite Activity - Marginal” value stood at 0 and the “Composite Activity - Score” value is reported as “Inactive”. Besides, in the series with Hepatotoxicity [2], the “Alkaline Phosphatase Increase - Activity Score” value is given as “Inactive”, the “Alkaline Phosphatase Increase - Index Value” is 0 and the “Alkaline Phosphatase Increase - Number of Reports” value is reported as less than 4. For the same compound, in the series with Hepatotoxicity [3], the “SGOT Increase - Activity Score” value was “Inactive”, the “SGOT Increase - Index Value” was 0 and the “SGOT Increase - Number of Reports” value is recorded as less than 4. Besides, in the series with Hepatotoxicity [4], the “SGPT Increase - Activity Score” value is given as “Inactive”, the “SGPT Increase - Index Value” amounted to 0 and the “SGPT Increase - Number of Reports” value is on record as less than 4. For the same compound, in the series with Hepatotoxicity [5], the “LDH Increase - Activity Score” value is “Inactive”, the “LDH Increase - Index Value” is 0 and the “LDH Increase - Number of Reports” value is less than 4. For the same compound, in the series on Hepatotoxicity [6], the “GGT Increase - Activity Score” value was “Inactive”, the “GGT Increase - Index Value” is on record as 0 and the “GGT Increase - Number of Reports” value is less than 4.
Consider `Cc1ccc(-c2nc3ccc(C)cn3c2CC(=O)N(C)C)cc1` [ZOLPIDEM], for which, in the series on Hepatotoxicity [1], the “Composite Activity - Active” value is 0, the “Composite Activity - Marginal” value is 4 and the “Composite Activity - Score” value was “Marginally Active”. Moreover, in the series with Hepatotoxicity [2], the “Alkaline Phosphatase Increase - Activity Score” value was “Marginally Active”, the “Alkaline Phosphatase Increase - Index Value” is on record as 3 and the “Alkaline Phosphatase Increase - Number of Reports” value is listed as “>= 4”. Further, in the series with Hepatotoxicity [3], the “SGOT Increase - Activity Score” value was “Marginally Active”, the “SGOT Increase - Index Value” was 3.8 and the “SGOT Increase - Number of Reports” value was “>= 4”. Moreover, in the series with Hepatotoxicity [4], the “SGPT Increase - Activity Score” value is recorded as “Marginally Active”, the “SGPT Increase - Index Value” is reported as 3.9 and the “SGPT Increase - Number of Reports” value was “>= 4”. Besides, in the series on Hepatotoxicity [5], the “LDH Increase - Activity Score” value was “Inactive”, the “LDH Increase - Index Value” came to 0.7 and the “LDH Increase - Number of Reports” value is “>= 4”. In addition, in the series with Hepatotoxicity [6], the “GGT Increase - Activity Score” value was “Marginally Active”, the “GGT Increase - Index Value” is recorded as 3 and the “GGT Increase - Number of Reports” value was “>= 4”.
